From patent US6992193B2, “Sulfonylamino phenylacetamide derivatives and methods of their use” (Adolor Corporation, priority 2003, dated 2006)
Where a name gives a salt, the structure may show the parent alone. Read-outs that look alike come from different tables or passages of the source.

What was measured:
[1] = target: T1, cloned human κ opioid receptor (Homo sapiens, UniProt P41145); assay: [3H]diprenorphine binding to cloned human κ opioid receptor
T1 construct: expressed in transfected cells
Description: (§1) IC50 values were obtained by nonlinear analysis of the data using GraphPad Prism version 3.00 for Windows (GraphPad Software, San Diego). Ki values were obtained by Cheng-Prusoff corrections of IC50 values.
(§2) After dilution in buffer A and homogenization as before, membrane proteins (10-80 μg) in 250 μL were added to mixtures containing test compound and [^3H]diprenorphine (0.5 to 1.0 nM, 40,000 to 50,000 dpm) in 250 μL of buffer A in 96-well deep-well polystyrene titer plates (Beckman). After incubation at room temperature for one hour, the samples were filtered through GF/B filters that had been presoaked in a solution of 0.5% (w/v) polyethylenimine and 0.1% (w/v) bovine serum albumin in water. The filters were rinsed 4 times with 1 mL of cold 50 mM Tris HCl, pH 7.8 and radioactivity remaining on the filters determined by scintillation spectroscopy. Nonspecific binding was determined by the minimum values of the titration curves and was confirmed by separate assay wells containing 10 μM naloxone.
(§3) To determine the equilibrium dissociation constant for the inhibitors (Ki), radioligand bound (cpm) in the presence of various concentrations of test compounds was measured. […] The nonlinear regression fit was performed using the program Prism® (GraphPad Software, San Diego, Calif.).

cloned human κ receptors = target: T2, cloned human κ receptors (Homo sapiens, UniProt P41145); assay: [35S]GTPγS binding stimulation, membranes containing cloned human κ receptors; type: biochemical; conditions: half-maximal stimulation of [35S]GTPγS binding, cloned human κ receptor
T2 construct: expressed in transfected cells
Description: The potencies of the agonists were assessed by their abilities to stimulate [^35S]GTPγS binding to membranes containing the cloned human κ receptors.
To determine the EC50 value, which was the concentration to give half-maximal stimulation of [^35S]GTPγS binding, the amount of [^35S]GTPγS bound in the presence of various concentrations of agonists was measured. The EC50 value was then determined.

[2] = target: T3, cloned human μ opioid receptor (Homo sapiens, UniProt P35372); assay: [3H]diprenorphine binding to cloned human μ opioid receptor
T3 construct: expressed in transfected cells
Description: as §1, §2
as §3, with “Calif.). The Ki values were then determined from the […] values by the following equation, [formula] • where [ligand] is the concentration of radioligand; and • Kd is the equilibrium dissociation constant for the radioligand.” for “Calif.).”

[3] = target: T4, cloned human δ opioid receptor (Homo sapiens, UniProt P41143); assay: [3H]diprenorphine binding to cloned human δ opioid receptor
T4 construct: expressed in transfected cells
Description: as §1, §2
as §3, with “Calif.). The Ki values were then determined from the […] values by the following equation, [formula] • where [ligand] is the concentration of radioligand; and • Kd is the equilibrium dissociation constant for the radioligand.” for “Calif.).”

CYP2D6 = target: T5, CYP2D6 (Homo sapiens, UniProt P10635); assay: Inhibition of CYP2D6 catalyzed conversion of MAMC to HAMC; type: in vitro ADME; conditions: MAMC to HAMC conversion; read-out: IC50(CYP2D6)
T5 construct: purchased BD Biosciences
Description: Inhibition of CYP2D6 Catalyzed Conversion of MAMC to HAMC
Microsomes containing baculovirus expressed human recombinant CYP2D6 and MAMC were purchased from BD Biosciences. The method is a modification of the method provided by BD Biosciences.
• Assay Buffer=50 mM KPO4, 15 μg/mL NADP^+, 0.30 mg/mL glucose-6-phosphate, 0.20 mg/mL MgCl2, 0.96 U/mL glucose-6-phosphate dehydrogenase, 2.5 μM MAMC, pH 7.4. • Dilution Buffer=50 mM KPO4, pH 7.4 • Enzyme Buffer=150 mM KPO4, pH 7.4 • Stop Solution=80% acetonitrile, 20% 0.5 M Tris Base Procedure:
The assays were done in black 96 well plates (VWR Cat# 22221-572) and contained: 40 μL assay buffer, 10 μL test compound in dilution buffer and 50 μL of 10-15 pmol/mL CYP2D6 in enzyme buffer. Final concentrations: (100 mM KPO4, pH 7.4, 7.9 μM NADP^+, 0.36 mM glucose-6-phosphate, 0.4 mM MgCl2, 0.38 U/mL glucose-6-phosphate dehydrogenase, 1 μM MAMC (BD Biosciences), 0.5 pmol CYP2D6 (BD Biosciences))
For large experiments, assay buffer and test compound were added using the MiniTrak IV (Packard Biosciences), otherwise they were added using 25-250 μL and 5-100 μL 8 channel electronic pipettors (BioHit). CYP2D6 was added using 25-250 μL 8 channel electronic pipettor.
Titrations are done in either 96 well deep-well plates (Beckman) or 96 well microtiter plates (Costar), an initial dilution in dilution buffer is prepared from stock solutions in DMSO to start either 8 (1:6) or 12 (1:3.15) serial dilutions. For 1:6 dilutions, 50 μL for each dilution is transferred to 250 μL dilution buffer. For 1:3.15 dilutions, 50 μL for each dilution is transferred to 108 μL dilution buffer. Further details on concentrations will be provided in each experiment. Titrations are done using either 25-250 μL 8 channel electronic pipettor, 30-300 μL 12 channel manual pipettor (Spectrum), or the Multiprobe II. For screening, dilution plates are prepared in dilution buffer in 96 well microtiter plates from masterplates in 100% DMSO using the Multiprobe II or MiniTrak IV. After assay buffer and test compound has been added, the plates and the enzyme buffer are prewarmed at 37° C. for 15 minutes. After prewarming, CYP2D6 is added to then enzyme buffer and then added to the assay plate using 25-250 μL 8 channel electronic pipettor and the plates are incubated for 15 minutes at 37° C. After incubation, 50 μL stop solution is added using 25-250 μL 8 channel electronic pipettor. The plates are then counted on the Fusion (Packard Biosciences) for 4 sec/well using and excitation filter of 390 nm and an emission filter of 460 nm, intensity setting of 1, high detector sensitivity.
Non-specific relative fluorescent units (RFU) are determined in the presence of 10 μM quinidine in wells A1, B1, and C1 of each plate and total RFU determined in wells D1, E1, F1 in the absence of test compound. Specific HAMC production is the difference between total and nonspecific. For each compound, a percent inhibition of HAMC production is calculated by: % I=(1−(A/B))*100 • where A=cpm specifically bound for test compound • B=cpm specifically bound in the absence of test compound For experiments where the plates are registered in the biological database, % I is determined automatically by the biological database. Titrations
IC50's are calculated using nonlinear regression to a one-site model using GraphPad Prism or a VB algorithm fitting the data to that equation.

CYP2C9 = CYP2C9 (Homo sapiens, UniProt P11712); assay: Inhibition of CYP2C9 conversion of dibenzylfluorescein to fluorescein; type: in vitro ADME; conditions: DBF to fluorescein conversion; read-out: IC50(CYP2C9)
Description: (§4) Inhibition of CYP2C9 and CYP3A4
(§5) These assays were carried out as described using CYP2C9 and CYP3A4 conversion of dibenzylfluorescein (DBF) to fluorescein (F).

CYP3A4 = CYP3A4 (Homo sapiens, UniProt P08684); assay: Inhibition of CYP3A4 conversion of dibenzylfluorescein to fluorescein; type: in vitro ADME; conditions: DBF to fluorescein conversion; read-out: IC50(CYP3A4)
Description: as §4, §5

[4] = test system: cytochrome P450 enzymes (CYP2D6, CYP3A4, CYP2C9); assay: Overall evaluation of inhibition of major drug metabolizing hepatic cytochrome P450 enzymes; type: in vitro ADME, human

Sequence of CYP2C9 (P11712 whole entry): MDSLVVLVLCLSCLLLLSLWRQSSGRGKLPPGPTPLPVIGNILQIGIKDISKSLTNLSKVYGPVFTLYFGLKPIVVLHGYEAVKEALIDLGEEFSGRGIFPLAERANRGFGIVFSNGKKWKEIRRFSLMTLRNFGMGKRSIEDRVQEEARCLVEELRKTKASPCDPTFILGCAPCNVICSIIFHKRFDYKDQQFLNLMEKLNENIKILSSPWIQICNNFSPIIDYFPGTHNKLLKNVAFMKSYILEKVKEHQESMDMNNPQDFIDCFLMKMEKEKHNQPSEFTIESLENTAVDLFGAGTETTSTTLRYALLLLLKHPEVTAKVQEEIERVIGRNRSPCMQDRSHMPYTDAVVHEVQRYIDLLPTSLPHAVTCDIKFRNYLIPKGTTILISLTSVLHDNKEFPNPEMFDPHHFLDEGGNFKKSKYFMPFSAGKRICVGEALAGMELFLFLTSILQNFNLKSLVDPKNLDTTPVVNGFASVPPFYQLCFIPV
T1 sequence (P41145 whole entry): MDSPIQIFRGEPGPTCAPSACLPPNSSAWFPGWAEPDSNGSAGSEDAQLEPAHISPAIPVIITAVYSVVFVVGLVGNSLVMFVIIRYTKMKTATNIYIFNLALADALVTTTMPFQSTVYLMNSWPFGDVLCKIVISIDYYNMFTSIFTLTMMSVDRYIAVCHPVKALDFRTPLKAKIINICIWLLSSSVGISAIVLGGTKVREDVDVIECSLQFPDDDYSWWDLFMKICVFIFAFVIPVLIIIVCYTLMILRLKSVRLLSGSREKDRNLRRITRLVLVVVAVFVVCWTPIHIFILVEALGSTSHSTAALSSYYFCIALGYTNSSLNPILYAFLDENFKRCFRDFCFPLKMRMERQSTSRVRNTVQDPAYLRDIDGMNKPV
T2 sequence (P41145 whole entry): as above
T4 sequence (P41143 whole entry): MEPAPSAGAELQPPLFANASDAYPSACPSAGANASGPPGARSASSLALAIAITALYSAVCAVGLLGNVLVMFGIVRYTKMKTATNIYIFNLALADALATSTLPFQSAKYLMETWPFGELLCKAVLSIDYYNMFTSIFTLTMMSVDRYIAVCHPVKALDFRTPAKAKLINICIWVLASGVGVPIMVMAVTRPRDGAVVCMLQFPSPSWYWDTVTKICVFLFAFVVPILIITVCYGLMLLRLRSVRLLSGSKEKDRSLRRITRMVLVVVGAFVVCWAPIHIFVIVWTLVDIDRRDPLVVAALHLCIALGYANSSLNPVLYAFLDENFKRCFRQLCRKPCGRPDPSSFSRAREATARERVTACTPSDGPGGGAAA
Sequence of CYP3A4 (P08684 whole entry): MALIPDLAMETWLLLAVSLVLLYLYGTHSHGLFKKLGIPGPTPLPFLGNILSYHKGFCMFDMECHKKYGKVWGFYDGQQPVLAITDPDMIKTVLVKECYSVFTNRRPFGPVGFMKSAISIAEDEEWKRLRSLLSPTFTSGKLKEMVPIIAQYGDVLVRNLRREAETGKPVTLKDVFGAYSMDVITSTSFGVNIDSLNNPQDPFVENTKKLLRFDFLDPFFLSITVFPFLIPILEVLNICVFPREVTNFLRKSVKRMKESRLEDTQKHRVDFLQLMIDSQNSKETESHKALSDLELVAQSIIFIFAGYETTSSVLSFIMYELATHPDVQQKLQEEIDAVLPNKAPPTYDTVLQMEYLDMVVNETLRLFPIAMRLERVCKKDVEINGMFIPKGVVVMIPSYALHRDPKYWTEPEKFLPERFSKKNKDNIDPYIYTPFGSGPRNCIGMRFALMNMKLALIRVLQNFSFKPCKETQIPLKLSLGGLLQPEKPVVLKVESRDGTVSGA
T3 sequence (P35372 whole entry): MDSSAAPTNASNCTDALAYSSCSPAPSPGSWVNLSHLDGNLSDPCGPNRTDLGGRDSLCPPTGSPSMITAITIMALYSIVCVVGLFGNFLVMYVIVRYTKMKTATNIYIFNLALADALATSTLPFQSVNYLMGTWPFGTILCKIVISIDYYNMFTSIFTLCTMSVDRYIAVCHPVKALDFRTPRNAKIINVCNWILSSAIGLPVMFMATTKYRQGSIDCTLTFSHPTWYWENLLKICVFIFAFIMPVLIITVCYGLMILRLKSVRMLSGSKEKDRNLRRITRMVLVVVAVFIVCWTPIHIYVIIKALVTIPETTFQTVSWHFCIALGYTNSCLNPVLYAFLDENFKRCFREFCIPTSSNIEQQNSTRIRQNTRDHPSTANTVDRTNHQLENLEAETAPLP
T5 sequence (P10635 whole entry): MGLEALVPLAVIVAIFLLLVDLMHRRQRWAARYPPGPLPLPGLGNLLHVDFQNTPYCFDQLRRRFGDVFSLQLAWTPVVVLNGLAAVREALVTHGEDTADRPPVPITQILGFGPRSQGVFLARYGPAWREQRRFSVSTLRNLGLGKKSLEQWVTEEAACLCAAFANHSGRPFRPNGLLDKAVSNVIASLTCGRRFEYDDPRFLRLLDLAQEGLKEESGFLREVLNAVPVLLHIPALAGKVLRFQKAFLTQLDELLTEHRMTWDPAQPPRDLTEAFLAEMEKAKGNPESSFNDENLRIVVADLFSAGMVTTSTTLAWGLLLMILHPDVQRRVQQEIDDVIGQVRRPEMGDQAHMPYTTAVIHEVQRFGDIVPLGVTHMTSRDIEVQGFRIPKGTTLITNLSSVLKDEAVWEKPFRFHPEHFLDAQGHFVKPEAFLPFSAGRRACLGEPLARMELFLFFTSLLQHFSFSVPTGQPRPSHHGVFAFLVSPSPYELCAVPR

| Compound | Ki [1] | EC50 (cloned human κ receptors) | Ki [2] | Ki [3] | IC50 (CYP2D6) | IC50 (CYP2C9) | IC50 (CYP3A4) | activity toward the cytochrome P450 (summary in words) [4] | Ki ([2]; inhibition of [3H]diprenorphine binding, cloned human μ receptor, read-out: Ki(μ)) | Ki ([3]; inhibition of [3H]diprenorphine binding, cloned human δ receptor, read-out: Ki(δ)) |
| --- | --- | --- | --- | --- | --- | --- | --- | --- | --- | --- |
| Cc1noc(C)c1S(=O)(=O)NCc1ccc(CC(=O)N(C)[C@H](CN2CC[C@H](O)C2)c2ccccc2)cc1 [Example 23, 2-{4-[(3,5-dimethyl-isoxazole-4-sulfonylamino)-methyl]-phenyl}-N-{2-[3-(S)-hydroxy-pyrrolidin-1-yl]-1-(S)-phenyl-ethyl}-N-methyl-acetamide hydrochloride] | 25 nM | 52 nM | 1400 nM | 320 nM | 11000 nM | > 10000 nM | 4300 nM | – | – | – |
| CN(C(=O)Cc1ccc(CNS(=O)(=O)c2cccs2)cc1)[C@H](CN1CC[C@H](O)C1)c1ccccc1 [Example 22, N-{2-[3-(S)-hydroxy-pyrrolidin-1-yl]-1-(S)-Phenyl-ethyl}-N-methyl-2-{4-[(thiophene-2-sulfonylamino)-methyl]-phenyl}-acetamide hydrochloride] | 2.9 nM | 4.9 nM | 1100 nM | 56 nM | 5800 nM | > 10000 nM | 4400 nM | – | – | – |
| CCCS(=O)(=O)NCc1ccc(CC(=O)N(C)[C@H](CN2CC[C@H](O)C2)c2ccccc2)cc1.Cl [Example 16, N-{2-[3-(S)-hydroxy-pyrrolidin-1-yl]-1-(S)-phenyl-ethyl}-N-methyl-2-{4-[(propane-1-sulfonylamino)-methyl]-phenyl}-acetamide hydrochloride] | – | – | 730 nM | 100 nM | > 10000 nM | > 10000 nM | > 10000 nM | metabolically stable in regard to their activity toward the cytochrome P450 | – | – |
| CS(=O)(=O)NCc1ccc(CC(=O)N2CCCC[C@H]2CN2CC[C@H](O)C2)cc1.O=C(O)C(F)(F)F [Example 29, N-[4-(2-{2-[3-(S)-hydroxy-pyrrolidin-1-ylmethyl]-(S)-piperidin-1-yl}-2-oxo-ethyl)-benzyl]-methanesulfonamide trifluoroacetate] | 2.1 nM | 27 nM | > 3000 nM | > 3000 nM | > 10000 nM | > 10000 nM | > 10000 nM | metabolically stable in regard to their activity toward the cytochrome P450 | – | – |
| CN(C(=O)Cc1ccc(CCCNS(C)(=O)=O)cc1)[C@H](CN1CC[C@H](O)C1)c1ccccc1.Cl [Example 27, N-{2-[3-(S)-hydroxy-pyrrolidin-1-yl]-1-(S)-phenyl-ethyl}-2-[4-(3-methanesulfonylamino-propyl)-phenyl]-N-methyl-acetamide hydrochloride] | – | – | – | – | > 10000 nM | > 10000 nM | > 10000 nM | metabolically stable in regard to their activity toward the cytochrome P450 | 320 nM | 240 nM |
| CN(C(=O)Cc1ccc(CN(C)S(C)(=O)=O)cc1)[C@H](CN1CC[C@H](O)C1)c1ccccc1.Cl [Example 24, N-{2-[3-(S)-hydroxy-pyrrolidin-1-yl]-1-(S)-phenyl-ethyl}-2-{4-[(methanesulfonyl-methyl-amino)-methyl]-phenyl}-N-methyl-acetamide hydrochloride] | 14 nM | 55 nM | 200 nM | 540 nM | > 10000 nM | > 10000 nM | > 10000 nM | metabolically stable in regard to their activity toward the cytochrome P450 | – | – |
| CC(C)[C@@H](CN1CC[C@H](O)C1)N(C)C(=O)Cc1ccc(CNS(C)(=O)=O)cc1.O=C(O)C(F)(F)F [Example 28, N-{1-[3-(S)-hydroxy-pyrrolidin-1-ylmethyl]-2-methyl-(S)-propyl}-2-[4-(methanesulfonylamino-methyl)-phenyl]-N-methyl-acetamide trifluoroacetate] | 6.2 nM | 79 nM | > 3000 nM | > 3000 nM | > 10000 nM | > 10000 nM | > 10000 nM | metabolically stable in regard to their activity toward the cytochrome P450 | – | – |
